Measured values reported in patent publication US20100093076A1, “SOLUBLE IL-27 RECEPTOR” (priority 2006, published 2010).

Assays:
[1] = target: T1, human ligand (single-chain IL27: EBI3 linked to IL-27 p28) (Homo sapiens, UniProt Q14213+Q8NEV9); test: Surface plasmon resonance (BIACORE 3000) kinetic rate and affinity constants; type: binding; settings: SPR
T1 construct: purchased R&D Systems
T1 sequence (Q14213+Q8NEV9 with tags, fused parts or gaps): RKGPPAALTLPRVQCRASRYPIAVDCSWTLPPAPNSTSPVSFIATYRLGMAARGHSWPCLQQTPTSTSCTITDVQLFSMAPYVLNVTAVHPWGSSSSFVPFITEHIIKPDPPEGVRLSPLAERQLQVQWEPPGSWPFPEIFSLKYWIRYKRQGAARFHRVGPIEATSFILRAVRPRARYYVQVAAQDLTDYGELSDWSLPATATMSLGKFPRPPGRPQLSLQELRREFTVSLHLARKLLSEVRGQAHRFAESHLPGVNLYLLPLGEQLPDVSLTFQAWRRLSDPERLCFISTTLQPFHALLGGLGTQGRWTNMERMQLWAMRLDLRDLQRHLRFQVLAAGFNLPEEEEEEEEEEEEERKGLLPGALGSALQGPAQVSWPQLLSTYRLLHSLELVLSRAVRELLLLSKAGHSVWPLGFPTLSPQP
Procedure: (§1) Kinetic rate and affinity constant values for the mouse (IL27RAm(mFc1), Example 1) and human (IL27RA-Fc5, Example 2) soluble receptors were obtained by surface plasmon resonance (SPR) using an automated instrument (BIACORE 3000; Biacore International AB, Uppsala, Sweden). The mouse soluble receptor was tested against mouse ligand (lot A1418F), and the human soluble receptor was tested against both mouse (A1426F) and human (A1534F) ligands. For determination of the kinetic rate constants for the receptor-ligand interactions, the gp130 molecule was not included as part of the receptor complex.
(§2) The IL27 ligands used in this study were single-chain molecules comprising EBI3 connected by its C-terminus to the N-terminus of IL-27 p28 via a polypeptide linker. (R&D Systems) Each of the ligands included an amino-terminal peptide tag.
(§3) For the mouse IL27RA study, the soluble receptor was captured onto the chip surface by an isotype-specific anti-mouse Fc antibody (obtained from Jackson ImmunoResearch Laboratories, Inc., West Grove, Pa.) covalently immobilized to the chip (BIACORE CM5 chip) using the standard amine coupling protocol specified by the instrument manufacturer. For the human IL27RA studies, the soluble receptor was directly and covalently immobilized to the chip via the amine coupling protocol. In all studies, ligand was injected over the active (receptor-bound) surface at varying concentrations to obtain a series of binding curves.
(§4) Experimental conditions were optimized for determination of kinetic rate constant values. The molecular densities of the soluble receptor protein loaded onto the chip surface were targeted to obtain maximum IL27 binding levels (Rmax) of ≦20 RU. The analyte (ligand) was injected over the receptor surface at a flow rate of […] at a concentration range of approximately 0.05 to 10 nM, allowing for an association phase of 3 minutes and a dissociation phase of 10 minutes. The mouse soluble receptor surface was regenerated with two 30-second injections at 50 μL/minute of glycine, pH 2.0. The human soluble receptor surface was similarly regenerated with a single 30-second injection.
(§5) All data were assessed using software provided with the instrument (BIACORE Evaluation software v. 3.2). The binding curves were globally fitted to a 1:1 binding model corrected for mass transport limitation resulting from the fast on-rate values (ka) obtained. Statistical analysis of the fits of the experimental binding curves versus theoretical curves gave standard error values for ka and kd of less than 2%, and chi^2 values of less than 2% of Rmax for all interactions tested, providing reasonable confidence in the kinetic rate constant values obtained.

[2] = target: T2, mouse ligand (single-chain IL27: EBI3 linked to IL-27 p28) (Mus musculus, UniProt O35228+Q8K3I6); test: as above; type: binding; settings: SPR
T2 construct: purchased R&D Systems
T2 sequence (O35228+Q8K3I6 with tags, fused parts or gaps): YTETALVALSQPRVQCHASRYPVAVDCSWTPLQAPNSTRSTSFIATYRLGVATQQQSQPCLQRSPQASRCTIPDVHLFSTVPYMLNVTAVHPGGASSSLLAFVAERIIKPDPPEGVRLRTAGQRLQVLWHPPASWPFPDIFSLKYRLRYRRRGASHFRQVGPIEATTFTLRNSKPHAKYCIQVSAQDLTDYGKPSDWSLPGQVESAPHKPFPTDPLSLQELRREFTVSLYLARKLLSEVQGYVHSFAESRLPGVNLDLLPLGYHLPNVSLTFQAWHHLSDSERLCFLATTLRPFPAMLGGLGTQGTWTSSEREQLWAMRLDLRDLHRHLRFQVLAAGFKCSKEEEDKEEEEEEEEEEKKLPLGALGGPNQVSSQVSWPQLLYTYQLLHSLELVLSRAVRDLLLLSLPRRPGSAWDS
Procedure: as §1, §2, §3, §4, §5

[3] = tested on: acute graft-vs-host disease; test: Mouse model of acute graft-vs-host disease; type: in vivo; settings: acute GVHD
Procedure: Efficacy of IL-27 antagonists was assayed in a mouse model of acute graft-vs-host disease (Durie et al., J. Clin. Invest. 94:1333-1338, 1994). Parental mice (C57BL/6; n=12) were euthanized, and their spleens were collected. The pooled spleens were smashed using two glass slides to dissociate splenic cells. Lysis buffer was added to the splenocyte suspension to remove red blood cells. The cells were washed in RPMI 1640 (10% FBS) medium and resuspended in an appropriate amount of PBS to make a cell concentration of 300 million cells/ml. Protein treatments were administered by intraperitoneal injection every other day beginning on day-1 and continuing until day 15. Dexamethasone (DEX) was administered by injection daily on days 0 through 6. On day 0, 75 million donor splenic lymphocytes from B6 mice (250.micro.1 per injection) were injected intravenously into recipient mice (C57BL/6×DBA/2 F1 (BDF1); n=10 per group) mice. Mice were monitored 3 times a week for changes in body weight and any signs of moribundity. Mice that lost >20% of their initial body weight were euthanized. Otherwise, mice were sacrificed 18 days after the cell transfer. Spleens were collected, and a CTL-specific lysis assay using P815 cells was performed as a quantitative measurement of acute GVHD. Furthermore, spleens were stained for T- and B-cell markers, including MHC class I markers (H2^b and H2^d) to look at donor/recipient cell ratio (acute GVHD spleen cells are mostly donor cells). Sera were collected to measure serum level of IgG1, IgG2a, and IgE by ELISA, and cytokine and chemokine levels using a commercially available kit (Luminex Corporation, Austin, Tex.).

ka ([1]; 1:1 binding model): 1e+07 M⁻¹ s⁻¹
kd ([1]; 1:1 binding model): 0.0019 s⁻¹
Kd ([1]; Kd=kd/ka): 0.19 nM
ka ([2]; 1:1 binding model): 8.1e+06 M⁻¹ s⁻¹
kd ([2]; 1:1 binding model): 0.0018 s⁻¹
Kd ([2]; Kd=kd/ka): 0.22 nM
Substance: human IL-27RA-Fc5: Extracellular domain of human IL27RA (amino acids 1 to 512 of SEQ ID NO:3) fused to Fc5, effector minus human gamma1 Fc; SEQ ID NO:16
colon length shortening [3]: did prevent colon length shortening
splenomegaly [3]: did not prevent splenomegaly
host spleen cells, CD4+T cells, and Treg cells ([3]; BDF1 recipients, day 18): maintained host spleen cells, CD4+T cells, and Treg cells
Body weight loss ([3]; versus PBS control group): not severe and was significantly less than in the PBS control group
IL-2 level ([3]; serum, arrows, key not given): ↑↑↑
IL-5 level ([3]; serum, arrows, key not given): ↑↑
IL-6 level ([3]; serum, arrows, key not given): ↓↓↓
IgE level ([3]; serum, arrows, key not given): ↑
IgG1 level ([3]; serum, arrows, key not given): ↑↑
IgG2A level ([3]; serum, arrows, key not given): ↑↑
